# Literature values as cited in patent US11213539B2, “Use of ivermectin and brimonidine in the treatment and/or prevention of moderate to severe rosacea” (GALDERMA HOLDING SA, priority 2015, dated 2022).
# Test system: patients treated with brimonidine 0.33% gel
# Conditions: brimonidine used alone; in a number of patients, in particular worsening of erythema (rebound)
smiles,measurement,value
Brc1c(NC2=NCCN2)ccc2nccnc12 [brimonidine],related adverse effects,excessive
